Calls of active or inactive are those of the source.
Experiments:
[1] = molecular target: T1, Sentrin-specific protease 7 (Homo sapiens, UniProt Q9BQF6); format: functional;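 note: Luminescence-based dose-response confirmation of ultra-high-throughput screening hits, measuring inhibition of SENP7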
T1 sequence (Q9BQF6 whole entry): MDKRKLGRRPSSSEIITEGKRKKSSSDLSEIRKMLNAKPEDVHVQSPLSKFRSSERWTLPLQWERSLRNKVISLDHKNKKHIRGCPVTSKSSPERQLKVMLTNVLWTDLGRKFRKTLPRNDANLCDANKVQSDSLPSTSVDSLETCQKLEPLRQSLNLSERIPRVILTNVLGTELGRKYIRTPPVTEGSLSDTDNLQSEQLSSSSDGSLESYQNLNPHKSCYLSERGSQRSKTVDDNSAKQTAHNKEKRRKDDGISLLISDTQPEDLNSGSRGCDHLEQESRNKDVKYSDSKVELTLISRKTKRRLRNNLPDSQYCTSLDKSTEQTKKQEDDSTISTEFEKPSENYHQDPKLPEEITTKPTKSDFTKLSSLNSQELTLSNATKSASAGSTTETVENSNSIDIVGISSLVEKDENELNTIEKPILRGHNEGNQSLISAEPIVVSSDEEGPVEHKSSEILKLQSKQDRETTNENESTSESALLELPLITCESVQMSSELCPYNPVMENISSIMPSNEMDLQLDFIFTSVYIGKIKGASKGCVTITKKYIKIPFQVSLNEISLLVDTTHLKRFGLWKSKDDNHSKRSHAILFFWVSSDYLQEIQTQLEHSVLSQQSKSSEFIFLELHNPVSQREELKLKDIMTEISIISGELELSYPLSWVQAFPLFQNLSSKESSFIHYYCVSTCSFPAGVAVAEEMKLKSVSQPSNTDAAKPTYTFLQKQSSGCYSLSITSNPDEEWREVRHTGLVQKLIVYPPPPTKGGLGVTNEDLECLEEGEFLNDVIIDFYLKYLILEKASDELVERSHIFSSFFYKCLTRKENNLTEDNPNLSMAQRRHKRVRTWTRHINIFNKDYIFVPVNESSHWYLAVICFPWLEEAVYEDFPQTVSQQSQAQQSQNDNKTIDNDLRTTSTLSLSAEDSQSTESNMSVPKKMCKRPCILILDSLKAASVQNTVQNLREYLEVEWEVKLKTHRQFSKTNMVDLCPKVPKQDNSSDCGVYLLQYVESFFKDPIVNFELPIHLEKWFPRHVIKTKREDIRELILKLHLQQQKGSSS

Phospholipase A2 = Phospholipase A2 (Homo sapiens, UniProt P04054); format: functional;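 note: confirmatory dose-response counterscreen on phospholipase A2, testing hits that came from an ultra-high-throughput screen for ATG4B inhibitors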
Phospholipase A2, sequence (P04054 whole entry): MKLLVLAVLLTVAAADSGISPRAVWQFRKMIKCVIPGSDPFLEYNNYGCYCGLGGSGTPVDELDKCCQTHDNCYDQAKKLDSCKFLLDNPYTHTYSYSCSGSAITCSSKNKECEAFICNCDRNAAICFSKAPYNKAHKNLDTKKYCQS

[2] = molecular target: Serine/threonine-protein phosphatase (Homo sapiens, UniProt Q9BPW0); assay: PP5 phosphatase inhibitors, dose response, biochemical, fluorescence (AID 2395)
Serine/threonine-protein phosphatase, sequence (Q9BPW0 whole entry): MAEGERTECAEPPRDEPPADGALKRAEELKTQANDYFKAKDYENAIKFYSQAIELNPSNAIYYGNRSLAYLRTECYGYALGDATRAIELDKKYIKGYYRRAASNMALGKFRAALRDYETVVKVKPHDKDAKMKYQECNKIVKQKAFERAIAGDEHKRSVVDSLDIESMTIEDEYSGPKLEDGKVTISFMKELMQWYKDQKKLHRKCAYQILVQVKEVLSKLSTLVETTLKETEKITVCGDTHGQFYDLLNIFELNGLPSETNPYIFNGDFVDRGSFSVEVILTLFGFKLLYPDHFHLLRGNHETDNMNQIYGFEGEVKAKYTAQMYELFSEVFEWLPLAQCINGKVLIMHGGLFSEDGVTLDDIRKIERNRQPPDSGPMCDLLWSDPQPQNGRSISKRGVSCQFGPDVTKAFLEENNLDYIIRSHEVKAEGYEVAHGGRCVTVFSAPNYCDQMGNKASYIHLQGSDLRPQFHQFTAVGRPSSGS

Mu-type opioid receptor = Mu-type opioid receptor (Homo sapiens, UniProt P35372); assay: Counterscreen for agonists of heterodimerization of the mu 1 (OPRM1) and delta 1 (OPRD1) opioid receptors: Luminescence-based cell-based high throughput dose response assay to identify agonists of OPRM1 homodimerization.; format: functional;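 note: U2OS cells expressing OPRM1 and beta-arrestin as split beta-galactosidase partners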
Mu-type opioid receptor, sequence (P35372 whole entry): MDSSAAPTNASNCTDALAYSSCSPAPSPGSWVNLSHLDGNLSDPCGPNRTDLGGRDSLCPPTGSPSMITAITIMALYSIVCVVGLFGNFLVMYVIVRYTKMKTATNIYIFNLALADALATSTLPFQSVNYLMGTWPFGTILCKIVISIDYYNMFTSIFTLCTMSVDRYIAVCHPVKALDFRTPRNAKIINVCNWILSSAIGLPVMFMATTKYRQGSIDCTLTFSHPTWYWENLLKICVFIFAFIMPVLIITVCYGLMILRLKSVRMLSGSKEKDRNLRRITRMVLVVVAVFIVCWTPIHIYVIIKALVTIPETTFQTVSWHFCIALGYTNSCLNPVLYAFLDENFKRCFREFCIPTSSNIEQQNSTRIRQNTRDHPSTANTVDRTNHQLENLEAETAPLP

[3] = inhibitors of intracellular T. cruzi replication, confirmation, NIH3T3 host cells, beta-gal luminescence (AID 2044); format: functional, cell-based;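 note: intracellular parasites grown in NIH/3T3 mouse fibroblasts as host cells; luminescent beta-galactosidase reporter signal from transgenic T. cruzi replicating inside host cells; inhibitors lower the luminescence signal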
[4] = molecular target: T2, Histone-lysine N-methyltransferase NSD2 (Homo sapiens, UniProt O96028); format: biochemical
T2 sequence (O96028 whole entry): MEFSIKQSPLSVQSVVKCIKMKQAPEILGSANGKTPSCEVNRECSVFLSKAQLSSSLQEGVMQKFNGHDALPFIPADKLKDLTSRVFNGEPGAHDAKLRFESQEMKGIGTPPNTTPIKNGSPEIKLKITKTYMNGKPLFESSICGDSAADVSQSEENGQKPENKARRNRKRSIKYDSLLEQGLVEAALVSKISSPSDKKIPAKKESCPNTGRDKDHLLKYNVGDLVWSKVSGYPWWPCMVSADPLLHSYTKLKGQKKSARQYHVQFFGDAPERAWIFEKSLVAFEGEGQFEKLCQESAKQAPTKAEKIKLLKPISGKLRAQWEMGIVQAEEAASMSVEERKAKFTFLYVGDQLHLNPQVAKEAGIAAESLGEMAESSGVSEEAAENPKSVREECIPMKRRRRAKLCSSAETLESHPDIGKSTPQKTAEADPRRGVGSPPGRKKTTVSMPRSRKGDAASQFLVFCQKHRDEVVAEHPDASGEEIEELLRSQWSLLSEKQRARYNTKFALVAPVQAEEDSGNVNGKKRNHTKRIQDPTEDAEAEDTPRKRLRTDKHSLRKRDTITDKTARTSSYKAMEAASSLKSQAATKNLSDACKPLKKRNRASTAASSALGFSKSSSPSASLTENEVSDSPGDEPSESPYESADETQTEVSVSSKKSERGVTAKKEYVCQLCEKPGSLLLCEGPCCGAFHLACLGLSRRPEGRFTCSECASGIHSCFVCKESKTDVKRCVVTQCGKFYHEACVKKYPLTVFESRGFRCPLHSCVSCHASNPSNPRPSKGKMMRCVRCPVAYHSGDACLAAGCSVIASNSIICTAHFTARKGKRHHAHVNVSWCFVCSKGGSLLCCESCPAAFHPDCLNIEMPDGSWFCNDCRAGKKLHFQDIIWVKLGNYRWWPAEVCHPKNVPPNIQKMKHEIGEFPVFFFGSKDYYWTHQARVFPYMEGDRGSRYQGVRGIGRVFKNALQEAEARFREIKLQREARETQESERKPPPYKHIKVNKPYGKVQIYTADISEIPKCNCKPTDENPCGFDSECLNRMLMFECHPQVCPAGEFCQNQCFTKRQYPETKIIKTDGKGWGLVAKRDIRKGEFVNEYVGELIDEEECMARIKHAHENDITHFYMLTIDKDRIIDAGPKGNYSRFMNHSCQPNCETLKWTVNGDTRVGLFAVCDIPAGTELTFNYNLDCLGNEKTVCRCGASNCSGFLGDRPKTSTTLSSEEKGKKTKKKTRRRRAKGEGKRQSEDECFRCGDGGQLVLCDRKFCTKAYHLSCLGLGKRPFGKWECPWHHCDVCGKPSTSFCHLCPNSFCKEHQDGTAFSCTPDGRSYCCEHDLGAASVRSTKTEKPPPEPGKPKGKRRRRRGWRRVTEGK

[5] = molecular target: Ras and Rab interactor 1/Tyrosine-protein kinase ABL1 (Homo sapiens, UniProt P00519+Q13671); format: functional;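 note: biochemical TR-FRET dose-response test measuring inhibition of binding between Rin1 and Abl proteins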
Ras and Rab interactor 1/Tyrosine-protein kinase ABL1, sequence (P00519 whole entry): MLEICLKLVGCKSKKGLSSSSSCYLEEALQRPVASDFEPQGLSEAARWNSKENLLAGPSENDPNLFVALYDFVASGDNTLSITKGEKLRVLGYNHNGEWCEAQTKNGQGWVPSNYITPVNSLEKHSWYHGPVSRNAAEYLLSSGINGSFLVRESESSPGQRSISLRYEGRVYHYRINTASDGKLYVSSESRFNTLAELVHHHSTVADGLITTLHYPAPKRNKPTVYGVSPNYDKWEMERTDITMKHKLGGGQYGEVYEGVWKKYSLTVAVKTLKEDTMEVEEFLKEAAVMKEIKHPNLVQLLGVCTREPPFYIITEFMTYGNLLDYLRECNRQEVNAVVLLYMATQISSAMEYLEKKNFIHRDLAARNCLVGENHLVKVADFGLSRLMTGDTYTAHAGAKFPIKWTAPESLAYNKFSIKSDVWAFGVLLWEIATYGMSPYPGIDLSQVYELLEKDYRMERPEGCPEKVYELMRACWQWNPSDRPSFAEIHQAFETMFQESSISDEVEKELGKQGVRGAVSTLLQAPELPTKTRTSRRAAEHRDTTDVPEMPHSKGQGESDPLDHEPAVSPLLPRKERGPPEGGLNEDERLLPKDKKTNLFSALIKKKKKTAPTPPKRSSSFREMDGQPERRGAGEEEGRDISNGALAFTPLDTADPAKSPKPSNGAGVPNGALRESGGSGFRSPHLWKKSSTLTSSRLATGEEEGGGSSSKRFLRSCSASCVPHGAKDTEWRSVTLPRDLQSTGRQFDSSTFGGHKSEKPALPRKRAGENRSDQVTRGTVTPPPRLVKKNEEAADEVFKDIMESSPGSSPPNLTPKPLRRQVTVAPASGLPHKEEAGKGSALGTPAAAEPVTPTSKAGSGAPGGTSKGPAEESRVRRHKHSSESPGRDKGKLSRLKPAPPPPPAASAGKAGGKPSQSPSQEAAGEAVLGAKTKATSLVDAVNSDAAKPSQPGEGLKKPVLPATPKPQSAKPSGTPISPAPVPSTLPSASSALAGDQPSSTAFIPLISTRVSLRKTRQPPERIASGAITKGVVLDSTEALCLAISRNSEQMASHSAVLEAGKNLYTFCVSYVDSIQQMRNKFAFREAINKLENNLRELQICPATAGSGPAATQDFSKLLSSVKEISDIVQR
Ras and Rab interactor 1/Tyrosine-protein kinase ABL1, sequence (Q13671 whole entry): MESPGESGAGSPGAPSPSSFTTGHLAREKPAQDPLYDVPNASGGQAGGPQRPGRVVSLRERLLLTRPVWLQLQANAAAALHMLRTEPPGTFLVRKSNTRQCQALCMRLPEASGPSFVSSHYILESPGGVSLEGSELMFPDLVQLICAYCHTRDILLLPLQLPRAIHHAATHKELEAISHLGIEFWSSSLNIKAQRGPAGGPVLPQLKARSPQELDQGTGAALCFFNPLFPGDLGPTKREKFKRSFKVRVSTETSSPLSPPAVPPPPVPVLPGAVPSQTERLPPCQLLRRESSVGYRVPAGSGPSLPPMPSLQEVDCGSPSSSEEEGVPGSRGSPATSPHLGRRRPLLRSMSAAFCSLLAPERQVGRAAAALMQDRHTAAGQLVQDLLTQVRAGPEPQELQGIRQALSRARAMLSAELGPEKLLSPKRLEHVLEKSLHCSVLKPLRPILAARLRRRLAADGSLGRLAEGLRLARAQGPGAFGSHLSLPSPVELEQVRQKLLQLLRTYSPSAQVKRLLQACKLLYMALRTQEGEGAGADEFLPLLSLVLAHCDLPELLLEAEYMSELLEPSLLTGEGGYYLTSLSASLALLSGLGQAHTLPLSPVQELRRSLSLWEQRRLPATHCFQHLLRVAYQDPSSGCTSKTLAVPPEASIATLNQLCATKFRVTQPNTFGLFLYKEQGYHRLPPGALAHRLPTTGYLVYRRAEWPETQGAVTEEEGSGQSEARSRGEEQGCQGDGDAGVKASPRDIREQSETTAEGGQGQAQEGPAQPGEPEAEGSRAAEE

**Q.** For Oc1nc(Nc2ccccc2)cc2ccccc12, which IC50 [1] is on record?
**A.** Its IC50 is 750 nM (active).

**Q.** And the IC50 (Phospholipase A2)?
**A.** Its IC50 is > 80000 nM (inactive).

**Q.** What about the IC50 [2] of the same compound?
**A.** Its IC50 is 31600 nM (not active).

**Q.** With CCCCCCCCCCOC(=O)C[n+]1c(COc2ccccc2C)n(C)c2ccccc21 as the compound, how does the EC50 (Mu-type opioid receptor) read?
**A.** The EC50 was > 92500 nM (inactive).

**Q.** And the EC50 [3]?
**A.** The EC50 was 680 nM (active).

**Q.** For COc1cc(OC)c(-c2c3cc(O)c(=O)cc-3oc3cc(O)c(O)cc23)cc1OC, which AC50 [4] is on record?
**A.** Its AC50 is 282 nM (active).

**Q.** And the IC50 [5]?
**A.** The IC50 was 724 nM (active).

Reference: ChEMBL document CHEMBL1201862, “PubChem BioAssay data set” (2004)
